Values quoted from earlier work, collected in patent publication US20250255801A1, “Novel Parenteral Composition Comprising Linagliptin or its Salts” (Zenvision Pharma LLP, priority 2021, published 2025).
In brackets after ≈: the same amount, converted by molar mass.

Columns and labels:
[1] = high solubility and low permeability
[2] = not given; remark: listed apart in the source

BCS class [1]: Class III
Solubility in acetone (acetone): ca. 1 mg/mL
Solubility in ethanol (ethanol): ca. 10 mg/mL
Solubility in isopropanol (isopropanol): < 1000 µg/mL
Solubility in methanol (methanol): ca. 60 mg/mL
Solubility in water (water): 900 µg/mL (≈ 1900 µM)
oral systemic bioavailability [2]: approximately 30%
Compound: CC#CCn1c(N2CCC[C@@H](N)C2)nc2c1c(=O)n(Cc1nc(C)c3ccccc3n1)c(=O)n2C [Linagliptin, 1H-Purine-2,6-dione, 8-[(3R)-3-amino-1-piperidinyl]-7-(2-butyn-1-yl)-3,7-dihydro-3-methyl-1-[(4-methyl-2 quinazolinyl)methyl]-]
